Results taken from patent EP0635577B1, “Screen for inhibitors of melanin biosynthesis” (BASF AKTIENGESELLSCHAFT, priority 1993, dated 1995).
Counter-ions that a name gives are not always drawn. Like-named read-outs stand apart in the source and are kept apart here.

Test system: Cladosporium cucumerinum
Assay: melanin biosynthesis inhibition screen, disk diffusion assay on solidified culture
Format: cell-based
Method: Potato dextrose medium (PDM) for the screening test is prepared by melting
The mixture is autoclaved as 150 ml aliquots at 121°C for 25 minutes.
A chloramphenicol stock solution is prepared to contain 15 mg chloramphenicol per mL absolute ethanol and is stored at -20°C.
Conidia from Cladosporium cucumerinum, 10^7/mL in 0.03% Tween 20™, retain their viability for at least 12 weeks of storage in 1.8 ml cryovials at -85°C. Inoculum for running the screen are raised once every three months and stored without a cryoprotectant at the working concentration of 10^7 conidia/mL.
Fresh inoculum suspensions are prepared from conidial suspensions stored at -85°C. A cryovial is thawed by hand-heat, and 200 uL spread on the surface of PDA in 9 cm Petri dishes. Plates are placed in a resin box (to prevent fungal escape) and incubated at room temperature, 40 cm below laboratory fluorescent lights. Seven days later conidia are collected. Five mL of 0.03% Tween 20™ is added to each plate, and the conidia are released by rubbing the mycelium with a glass rod. The suspension is passed through a layer of sterile Miracloth™ and the concentration adjusted to 10^7 conidia/mL in 0.03% Tween 20™ using a haemocytometer. Aliquots of 1 mL are dispensed into cryovials and placed in a polystyrene holder to freeze slowly to -85°C.
For the test, 150 mL of PDM is cooled to 35°C, and 0.1 mL of chloramphenicol stock solution is added by gentle swirling. A vial of C. cucumerinum conidial suspension (10^7 conidia/ml in Tween 20™) thawed with hand-heat is mixed into the growth medium using gentle swirling. The mixture is poured immediately into a Biotray, and the agar is allowed to solidify.
Test compounds are applied to 0.63 cm (¼ inch) filter disks. Each test includes a positive control, 200 ng tricyclazole in 20% dimethyl sulphoxide (DMSO). The plate is incubated at room-temperature (∼23°C) 40 cm below laboratory fluorescent lights. The plate is read 40 hours later. […] The Biotrays are autoclaved before disposal.
The compounds are applied as 20 ul droplets from a 1 mg/ml stock solution.

[1] = Antifungal Panel, effect on growth and pigmentation in words, 20 ul droplets from a 1 mg/ml stock solution on filter disk, read 40 hours later
[2] = Antifungal Panel, growth inhibition zone, 20 ul droplets from a 1 mg/ml stock solution on filter disk, read 40 hours later
[3] = C. cucumerinum Antibiotic Panel, effect on growth and pigmentation in words, screen of Example 1
[4] = C. cucumerinum Antibiotic Panel, growth inhibition zone, screen of Example 1
[5] = C. cucumerinum Antibiotic Panel, screen of Example 1

## C=CC1(C)OC(=O)N(c2cc(Cl)cc(Cl)c2)C1=O (centres unmarked) [Ronilon]
[1]
  Observation: very slight effect on growth

## NC[C@H]1O[C@H](O[C@H]2[C@H](O)[C@@H](O[C@H]3O[C@H](CO)[C@@H](O)[C@H](N)[C@H]3O)[C@H](N)C[C@@H]2N)[C@H](O)[C@@H](O)[C@@H]1O [Kanamycin]
[2]
  Observation: inhibits, radius cleared: inhibits, 10 mm radius cleared

## C[C@@H]1C[C@@H]([C@H](O)CC2CC(=O)NC(=O)C2)C(=O)[C@@H](C)C1 [Cycloheximide]
  Observation: inhibits, radius cleared: inhibits, 22 mm radius cleared

## CC[C@H]1OC(=O)C[C@@H](O)[C@H](C)[C@@H](O[C@@H]2O[C@H](C)[C@@H](O[C@H]3C[C@@](C)(O)[C@@H](O)[C@H](C)O3)[C@H](N(C)C)[C@H]2O)[C@@H](CC=O)C[C@@H](C)C(=O)/C=C/C(C)=C/[C@@H]1CO[C@@H]1O[C@H](C)[C@@H](O)[C@@H](OC)[C@H]1OC [Tylosin Tartrate]
[3]
  Observation: no effect on growth or pigmentation

## Nc1nc(=O)[nH]cc1F [5-Fluoro-Cytosine]
[2]
  Observation: inhibits, radius cleared: inhibits, 35 mm radius cleared

## CC1=C(C(=O)Nc2ccccc2)SCCO1 [Carboxin]
[2]
  Observation: inhibits, radius cleared: inhibits, 21 mm radius cleared

## Trichomycin
[3]
  Observation: no effect on growth or pigmentation

## C[C@H]1CCC/C=C/[C@@H]2C[C@H](O)C[C@H]2[C@H](O)/C=C/C(=O)O1 [Ascotoxin]
[3]
  Observation: no effect on growth or pigmentation

## [H]/N=C(/N)N[C@H]1[C@H](O)[C@@H](O)[C@H](O[C@@H]2O[C@@H](C)[C@](O)(C=O)[C@H]2O[C@@H]2O[C@@H](CO)[C@H](O)[C@@H](O)[C@@H]2NC)[C@@H](N/C(N)=N\[H])[C@@H]1O [Streptomycin Sulfate]
[3]
  Observation: no effect on growth or pigmentation

## Dermostatin
[3]
  Observation: no effect on growth or pigmentation

## Nc1ccn([C@@H]2O[C@H]([C@H](O[C@@H]3O[C@H](CO)[C@@H](O)[C@H](N)[C@H]3O)[C@@H](O)[C@@H](O)[C@H](O)[C@H](O)CO)[C@@H](N)[C@H](O)[C@H]2O)c(=O)n1 [Anthelmycin]
[4]
  Observation: inhibits, radius cleared: inhibits, 14 mm radius cleared

## CCCCCCCCCCCCCN1CC(C)OC(C)C1 (centres unmarked) [Tridemorph]
[2]
  Observation: inhibits, radius cleared: inhibits, 6 mm radius cleared

## Cc1cc(=O)n2c3c(c4c(cc13)c(CO)cc(=O)n4C)OC2 [Nybomycin]
[3]
  Observation: no effect on growth or pigmentation

## C[C@@H]1C/C=C/C=C/C=C/C=C/[C@H](O[C@@H]2O[C@H](C)[C@@H](O)[C@H](N)[C@@H]2O)C[C@@H]2O[C@](O)(C[C@@H](O)C[C@H]3O[C@@H]3/C=C/C(=O)O1)C[C@H](O)[C@H]2C(=O)O [Tennecetin]
[3]
  Observation: no effect on growth or pigmentation

## Protomycin/Streptimidone
[3]
  Observation: no effect on growth or pigmentation

## Noconazole
[2]
  Observation: inhibits, radius cleared: inhibits, 8 mm radius cleared

## NC(=O)OC[C@H](O)[C@@H](O)[C@H](N)C(=O)N[C@H](C(=O)O)[C@H]1O[C@@H](n2cc(C(=O)O)c(=O)[nH]c2=O)[C@H](O)[C@@H]1O [Polyoxin D]
[2]
  Observation: inhibits, radius cleared: inhibits, 7 mm radius cleared

## Flavofungin
[3]
  Observation: no effect on growth or pigmentation

## Tunicamycin
[2]
  Observation: inhibits, radius cleared: inhibits, 22 mm radius cleared

## C[C@H]1C[C@H](C)C(=O)[C@@H]([C@H](O)CC2CC(=O)NC(=O)C2)C1 [Naramycin B]
[4]
  Observation: inhibits, radius cleared: inhibits, 15 mm radius cleared

## Maneb
[1]
  Observation: no effect on pigmentation, growth thin

## Nc1ncnc2c1ccn2[C@@H]1O[C@H](CO)[C@@H](O)[C@H]1O [Tubercidin]
  Observation: fungal thinning, radius: fungal thinning, 10 mm radius

## C[C@@H]1C[C@@H]2CCCC(O)=C2C(=O)O1 [Ramulosin]
[3]
  Observation: no effect on growth or pigmentation

## CN[C@@H]1C[C@H](N)[C@@H](O)[C@H](O[C@@H]2O[C@H](CO)[C@H](O)[C@@H]3OC4(O[C@H]23)O[C@H]([C@@H](N)CO)[C@H](O)[C@H](O)[C@H]4O)[C@H]1O (some centres unmarked) [Destomycin A]
[4]
  Observation: inhibits, radius cleared: inhibits, 18 mm radius cleared

## CN[C@H](CC(C)C)C(=O)N[C@H]1C(=O)N[C@@H](CC(N)=O)C(=O)N[C@H]2C(=O)N[C@H]3C(=O)N[C@H](C(=O)N[C@H](C(=O)O)c4cc(O)cc(O)c4-c4cc3ccc4O)[C@H](O)c3ccc(c(Cl)c3)Oc3cc2cc(c3O[C@@H]2O[C@H](CO)[C@@H](O)[C@H](O)[C@H]2O[C@H]2C[C@](C)(N)[C@H](O)[C@H](C)O2)Oc2ccc(cc2Cl)[C@H]1O [Vancomycin HCl]
  Observation: no effect on growth or pigmentation

## COC(=O)c1ccccc1S(=O)(=O)NC(=O)Nc1nc(C)cc(C)n1 [Sulfometuron methyl]
[2]
  Observation: inhibits, radius cleared: inhibits, 6 mm radius cleared

## CC(=O)N1CCN(c2ccc(OCC3COC(Cn4ccnc4)(c4ccc(Cl)cc4Cl)O3)cc2)CC1 (centres unmarked) [Ketoconazole]
[2]
  Observation: inhibits, radius cleared: inhibits, 26 mm radius cleared

## C/C=C/[C@H]1O[C@@](O)([C@@H](C)[C@H](O)[C@H](C)[C@H]2OC(=O)/C(OC)=C/C(C)=C/[C@@H](C)[C@@H](O)[C@@H](CC)[C@@H](O)[C@H](C)C/C(C)=C/C=C/[C@@H]2OC)C[C@@H](O[C@H]2C[C@@H](O)[C@H](OC(N)=O)[C@@H](C)O2)[C@@H]1C [Folimycin]
[4]
  Observation: inhibits, radius cleared: inhibits, 4 mm radius cleared

## Thioaurin
[4]
  Observation: inhibits, radius cleared: inhibits, 16 mm radius cleared

## COc1oc([C@H]2C/C(=C/C(C)=C/c3ccc([N+](=O)[O-])cc3)CO2)c(C)c(=O)c1C [Mycolutein]
[5]
  Observation: fungal thinning, radius: fungal thinning, 16 mm radius

## CC1CCC(=O)C=CC(=O)OC(C)CCC(=O)C=CC(=O)O1 (centres unmarked) [Pyrenophorin]
[4]
  Observation: inhibits, radius cleared: inhibits, 12 mm radius cleared

## Monicamycin
[3]
  Observation: no effect on growth or pigmentation

## COCC(=O)N(c1c(C)cccc1C)C(C)C(=O)OC (centres unmarked) [Metalaxyl]
[1]
  Observation: no effect on growth or pigmentation

## OC(c1ccc(Cl)cc1)(c1cncnc1)c1ccccc1Cl (centres unmarked) [Fenarimole]
[2]
  Observation: inhibits, radius cleared: inhibits, 22 mm radius cleared

## Neomycin Sulfate
[3]
  Observation: no effect on growth or pigmentation

## Sulfocidin
[5]
  Observation: fungal thinning, radius: fungal thinning, 5 mm radius

## Tetrahydro Spiramycin Base
[3]
  Observation: no effect on growth or pigmentation

## Nc1nc[nH]n1 [Amino-triazole]
[2]
  Observation: inhibits, radius cleared: inhibits, 13 mm radius cleared

## Hamycin
[3]
  Observation: no effect on growth or pigmentation

## Ristocedin
[3]
  Observation: no effect on growth or pigmentation

## CN1C(=O)[C@]23CC4=CC=C[C@H](O)[C@H]4N2C(=O)[C@@]1(CO)SS3 [Gliotoxin]
  Observation: inhibits, radius cleared: inhibits, 17 mm radius cleared

## Aureofungin
[3]
  Observation: no effect on growth or pigmentation

## CSC[S@+]([O-])C[C@H](CO)NC(=O)/C=C/c1c(C)[nH]c(=O)[nH]c1=O [Sparsomycin]
[3]
  Observation: no effect on growth or pigmentation

## CN(C)c1ncnc2c1ncn2[C@@H]1O[C@H](CO)[C@@H](N)[C@H]1O [Puromycin Aminonucleoside]
[3]
  Observation: no effect on growth or pigmentation

## CC(=O)Nc1c2sscc-2n(C)c1=O [Thiolutin]
[4]
  Observation: inhibits, radius cleared: inhibits, 23 mm radius cleared

## Neohumidin
[3]
  Observation: no effect on growth or pigmentation

## Clc1cc(Cl)c(OCC#CI)cc1Cl [Haloprofin]
[2]
  Observation: inhibits, radius cleared: inhibits, 13 mm radius cleared
